Values of other authors in US8003637B2, “Stabilized atypical antipsychotic formulation” (Handa Pharmaceuticals, LLC, priority 2008, dated 2011).
Read-outs that look alike come from different tables or passages of the source.

Settings: Merck Index

Row | amount soluble in 100 grams of water (25° C.) | volume of water in which 1 gram can dissolve (boiling water) | volume of water in which 1 gram can dissolve (cold water) | Compound
1 | 0.63 grams |  |  | O=C(O)/C=C/C(=O)O [fumaric acid, (E)-butenedioic acid]
2 |  | 1 mL | 13 mL | O=C(O)CCC(=O)O [succinic acid, 1,4-butanedioic acid]
